Test results: PubChem BioAssay (NCI)
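Assay format: 96-well plates, 48-hour exposure. The concentration for 50% growth inhibition is given as GI50. TGI marks complete inhibition of growth.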

Tests used:
Assay in all cases: NCI tumour cell line growth inhibition, 48 h
786-0 renal = tested on: 786-0 renal
A498 renal = tested on: A498 renal
A549 NSCLC = tested on: A549 NSCLC
ACHN renal = tested on: ACHN renal
BT-549 breast = tested on: BT-549 breast
CAKI-1 renal = tested on: CAKI-1 renal
CCRF-CEM leukemia = tested on: CCRF-CEM leukemia
COLO 205 colon = tested on: COLO 205 colon
DU-145 prostate = tested on: DU-145 prostate
HCC-2998 colon = tested on: HCC-2998 colon
HCT-116 colon = tested on: HCT-116 colon
HCT-15 colon = tested on: HCT-15 colon
HL-60(TB) leukemia = tested on: HL-60(TB) leukemia
HOP-62 NSCLC = tested on: HOP-62 NSCLC
HOP-92 NSCLC = tested on: HOP-92 NSCLC
HS 578T breast = tested on: HS 578T breast
HT29 colon = tested on: HT29 colon
IGROV1 ovarian = tested on: IGROV1 ovarian
K-562 leukemia = tested on: K-562 leukemia
KM12 colon = tested on: KM12 colon
LOX IMVI melanoma = tested on: LOX IMVI melanoma
M14 melanoma = tested on: M14 melanoma
MALME-3M melanoma = tested on: MALME-3M melanoma
MCF7 breast = tested on: MCF7 breast
MDA-MB-231 breast = tested on: MDA-MB-231 breast
MDA-MB-435 = tested on: MDA-MB-435
MOLT-4 leukemia = tested on: MOLT-4 leukemia
NCI-H226 lung = tested on: NCI-H226 lung
NCI-H23 lung = tested on: NCI-H23 lung
NCI-H460 lung = tested on: NCI-H460 lung
NCI-H522 lung = tested on: NCI-H522 lung
NCI/ADR-RES ovarian = tested on: NCI/ADR-RES ovarian
OVCAR-3 ovarian = tested on: OVCAR-3 ovarian
OVCAR-4 ovarian = tested on: OVCAR-4 ovarian
OVCAR-5 ovarian = tested on: OVCAR-5 ovarian
OVCAR-8 ovarian = tested on: OVCAR-8 ovarian
PC-3 prostate = tested on: PC-3 prostate
RPMI-8226 leukemia = tested on: RPMI-8226 leukemia
RXF 393 renal = tested on: RXF 393 renal
SF-268 CNS = tested on: SF-268 CNS
SF-295 CNS = tested on: SF-295 CNS
SF-539 CNS = tested on: SF-539 CNS
SK-MEL-2 melanoma = tested on: SK-MEL-2 melanoma
SK-MEL-28 melanoma = tested on: SK-MEL-28 melanoma
SK-MEL-5 melanoma = tested on: SK-MEL-5 melanoma
SK-OV-3 ovarian = tested on: SK-OV-3 ovarian
SN12C renal = tested on: SN12C renal
SNB-19 CNS = tested on: SNB-19 CNS
SNB-75 CNS = tested on: SNB-75 CNS
SW-620 colon = tested on: SW-620 colon
T-47D breast = tested on: T-47D breast
TK-10 renal = tested on: TK-10 renal
U251 CNS = tested on: U251 CNS
UACC-257 melanoma = tested on: UACC-257 melanoma
UACC-62 melanoma = tested on: UACC-62 melanoma
UO-31 renal = tested on: UO-31 renal

O=C(c1ccc(Cl)cc1)c1no[n+]([O-])c1C(=O)c1ccc(Cl)cc1 showed a GI50 (786-0 renal) of 3.97 µM, a TGI (786-0 renal) of 13.7 µM and a GI50 (A498 renal) of 16.4 µM. For the same compound, the TGI (A498 renal) was 36.4 µM, the GI50 (A549 NSCLC) was 23.5 µM and the TGI (A549 NSCLC) was 62.1 µM. For the same compound, the GI50 (ACHN renal) was 5.69 µM, the TGI (ACHN renal) was 17.9 µM and the GI50 (BT-549 breast) was 9.21 µM. It also gave a TGI (BT-549 breast) of 22 µM, a GI50 (CAKI-1 renal) of 4.58 µM and a TGI (CAKI-1 renal) of 12.2 µM. The GI50 (CCRF-CEM leukemia) was 2 µM, the TGI (CCRF-CEM leukemia) was 4.75 µM and the GI50 (COLO 205 colon) was 14.6 µM. The TGI (COLO 205 colon) was 34.3 µM, the GI50 (DU-145 prostate) was 17 µM and the TGI (DU-145 prostate) was 31 µM. For the same compound, the GI50 (HCC-2998 colon) was 21 µM, the TGI (HCC-2998 colon) was 44.8 µM and the GI50 (HCT-116 colon) was 10.7 µM. It also gave a TGI (HCT-116 colon) of 27.4 µM, a GI50 (HCT-15 colon) of 12.6 µM and a TGI (HCT-15 colon) of 31 µM. For the same compound, the GI50 (HL-60(TB) leukemia) was 6.06 µM, the TGI (HL-60(TB) leukemia) was 20.7 µM and the GI50 (HOP-62 NSCLC) was 28.5 µM. For the same compound, the TGI (HOP-62 NSCLC) was greater than 74.7 µM, the GI50 (HOP-92 NSCLC) was 1.77 µM and the TGI (HOP-92 NSCLC) was 4.26 µM. It also gave a GI50 (HS 578T breast) of 21.2 µM, a TGI (HS 578T breast) of 68.2 µM and a GI50 (HT29 colon) of 11.2 µM. For the same compound, the TGI (HT29 colon) was 26.4 µM, the GI50 (IGROV1 ovarian) was 3.87 µM and the TGI (IGROV1 ovarian) was 10.3 µM. For the same compound, the GI50 (K-562 leukemia) was 5.32 µM, the TGI (K-562 leukemia) was 31.8 µM and the GI50 (KM12 colon) was 20.3 µM. The TGI (KM12 colon) was 45.6 µM, the GI50 (LOX IMVI melanoma) was 1.79 µM and the TGI (LOX IMVI melanoma) was 3.59 µM. The GI50 (M14 melanoma) was 13.3 µM, the TGI (M14 melanoma) was 27.2 µM and the GI50 (MALME-3M melanoma) was 2.18 µM. It also gave a TGI (MALME-3M melanoma) of 4.2 µM, a GI50 (MCF7 breast) of 11.3 µM and a TGI (MCF7 breast) of 31.7 µM. It also gave a GI50 (MDA-MB-231 breast) of 10.9 µM, a TGI (MDA-MB-231 breast) of 26.8 µM and a GI50 (MDA-MB-435) of 13.5 µM. The TGI (MDA-MB-435) was 26.8 µM, the GI50 (MOLT-4 leukemia) was 4.73 µM and the TGI (MOLT-4 leukemia) was 22.1 µM. It also gave a GI50 (NCI-H226 lung) of 15.8 µM, a TGI (NCI-H226 lung) of 31.1 µM and a GI50 (NCI-H23 lung) of 16.5 µM. The TGI (NCI-H23 lung) was 40.9 µM, the GI50 (NCI-H460 lung) was 23.6 µM and the TGI (NCI-H460 lung) was 63 µM. For the same compound, the GI50 (NCI-H522 lung) was 1.74 µM, the TGI (NCI-H522 lung) was 3.37 µM and the GI50 (NCI/ADR-RES ovarian) was 20.5 µM. For the same compound, the TGI (NCI/ADR-RES ovarian) was 49.8 µM, the GI50 (OVCAR-3 ovarian) was 6.6 µM and the TGI (OVCAR-3 ovarian) was 14.5 µM. It also gave a GI50 (OVCAR-4 ovarian) of 13.3 µM, a TGI (OVCAR-4 ovarian) of 27.5 µM and a GI50 (OVCAR-5 ovarian) of 16.5 µM. For the same compound, the TGI (OVCAR-5 ovarian) was 35.3 µM, the GI50 (OVCAR-8 ovarian) was 14.5 µM and the TGI (OVCAR-8 ovarian) was 33.8 µM. For the same compound, the GI50 (PC-3 prostate) was 8.76 µM, the TGI (PC-3 prostate) was 22 µM and the GI50 (RPMI-8226 leukemia) was 4.6 µM. The TGI (RPMI-8226 leukemia) was 24.4 µM, the GI50 (RXF 393 renal) was 11.5 µM and the TGI (RXF 393 renal) was 23.8 µM. It also gave a GI50 (SF-268 CNS) of 14.1 µM, a TGI (SF-268 CNS) of 33.2 µM and a GI50 (SF-295 CNS) of 14.3 µM. For the same compound, the TGI (SF-295 CNS) was 29 µM, the GI50 (SF-539 CNS) was 3.24 µM and the TGI (SF-539 CNS) was 8.17 µM. For the same compound, the GI50 (SK-MEL-2 melanoma) was 14.9 µM, the TGI (SK-MEL-2 melanoma) was 28.7 µM and the GI50 (SK-MEL-28 melanoma) was 14.1 µM. The TGI (SK-MEL-28 melanoma) was 27.8 µM, the GI50 (SK-MEL-5 melanoma) was 15.9 µM and the TGI (SK-MEL-5 melanoma) was 30.5 µM. It also gave a GI50 (SK-OV-3 ovarian) of 21 µM, a TGI (SK-OV-3 ovarian) of 42.9 µM and a GI50 (SN12C renal) of 13 µM. For the same compound, the TGI (SN12C renal) was 28.3 µM, the GI50 (SNB-19 CNS) was 32.7 µM and the TGI (SNB-19 CNS) was greater than 95.8 µM. For the same compound, the GI50 (SNB-75 CNS) was 15 µM, the TGI (SNB-75 CNS) was 29 µM and the GI50 (SW-620 colon) was 11.8 µM. The TGI (SW-620 colon) was 25.1 µM, the GI50 (T-47D breast) was 13.1 µM and the TGI (T-47D breast) was 43.1 µM. For the same compound, the GI50 (TK-10 renal) was 15 µM, the TGI (TK-10 renal) was 28.3 µM and the GI50 (U251 CNS) was 15.8 µM. For the same compound, the TGI (U251 CNS) was 30.2 µM, the GI50 (UACC-257 melanoma) was 14.5 µM and the TGI (UACC-257 melanoma) was 27.8 µM. It also gave a GI50 (UACC-62 melanoma) of 13.7 µM, a TGI (UACC-62 melanoma) of 27.3 µM and a GI50 (UO-31 renal) of 1.64 µM. For the same compound, the TGI (UO-31 renal) was 3.2 µM.
